Measurements reported in patent US20130237556A1, “BERBERINE ALKALOID AS A MEDICAMENT FOR PREVENTION AND TREATMENT OF NEURAL DISEASE” (HONG KONG BAPTIST UNIVERSITY, priority 2012, published 2013).
“Also recorded” adds a separate entry of the source.

What was measured:
[1] = BBR levels in TgCRND8 brain tissue by LC/MS after oral administration; assay type: in vivo, mouse; conditions: for concentration at 3 hr: TgCRND8, mouse, brain, po, 3 hr after p.o. administration, LC/MS
Method: To determine how oral administration of BBR influences the concentration of BBR in the brain, liquid chromatography and mass spectrometry techniques (LC/MS) are used to analyze changes in BBR levels in the TgCRND8 brain tissue in a separate experiment. BBR levels in the brain are found to be 0.88±0.27 and 1.67±0.73 μM for low and high doses of BBR respectively after 3 hr p.o. administration.

TgCRND8 mice [2] = assay: Morris water maze (visible platform, hidden platform, probe trials); assay type: in vivo, mouse
TgCRND8 mice [3] = assay: Thioflavin S staining of fibrillar parenchymal and cerebrovascular (CAA) Aβ; assay type: in vivo, mouse; conditions: for reduction in ThioS-positive fibrillar Aβ: relative to untreated control TgCRND8
N2a-SwedAPP cells = assay: Western blot of N2a-SwedAPP cell lysates (p-Akt, pGSK3, CTFs, p-APP, PHF-1); assay type: cell-based, mouse
Method: N2a-SweAPP cells are mouse neuroblastoma N2a cells stably transfected with human Swedish mutant APP695, and were gifts from Dr. Gopal Thinakaran (University of Chicago, Chicago Ill.). Cells were maintained in Dulbecco's modified Eagle's medium (DMEM) (Invitrogen, Carlsbad, Calif.) supplemented with 10% fetal bovine serum, penicillin and streptomycin and 200 μg/mL G418 (Invitrogen). Cells were cultured either in multiwell dishes or on 60 mm tissue culture plates in DMEM 10% with FBS Cell cultures were incubated at 37° C. in a humid 5% CO2/ 95% air environment. After cells were grown close to confluence, they were treated with/without different concentrations of BBR in DMEM (1% FBS) for 24 h. […] For the concentration-dependent treatment, cells were treated with serial dilutions of BBR ranging from 0-20 μM for 2 or 12 h prior to lysis with ice-cold RIPA buffer (20 mM Tris, pH 7.4, 150 mM NaCl, 1% triton-X, 0.5% sodium deoxycholate, EDTA) containing protease inhibitor cocktails (EMD chemicals, Philadelphia, Pa.) to find the optimal range of BBR. For the time-dependent application, cells were treated with a 20 μM concentration of BBR and incubated at time points ranging from 0-180 min prior to lysis. For immunofluorescent staining, N2a-SwedAPP cells were seeded on glass cover slips at a density of 0.5×10^5 viable cells per well in a 24-well plate. Cells on cover slips were treated with BBR (20 μM) for 3 h with or without pretreatment of LY294002 (Cell signaling Technology, Danvers, Mass.), a specific inhibitor of Akt upstream kinase phosphatidylinositol 3-kinase (PI3K) (Vlahos et al., 1994) in serum-free DMEM for 1 h, whereas control cells were incubated with vehicle (DMSO) alone in DMEM.
The brain SDS fraction as described above was used to detect the full-length APP (Fl-APP), APP C-terminal fragments (CTFs: CTF-β and CTF-α), p-APP, p-CTFs, BACE-1, ADAM-10, neprilysin, insulin-degrading enzyme (IDE), GSK3α/β, p-cyclin-dependent kinase 5 (p-CDKS), p-stress-activated protein kinase/Jun-amino-terminal kinase (p-JNK), phospho-tau epitopes and β-actin in Western blot analysis. For cell homogenates preparation, cells were washed with phosphate-buffered saline (PBS) and solubilized in ice-cold RIPA buffer. Equal amounts of protein (30 μg) were subjected to 10 and 15% SDS polyacrylamide gels, transferred onto PVDF membranes (GE Healthcare, Piscataway, N.J.) at 300 mA for 2 h, and then blocked with 5% fat-free milk in Tris-buffered saline and 0.1% Tween-20 for 2 h at room temperature. The membrane was then incubated with primary antibodies overnight at 4C. The antibodies used in Western blots were β-actin (mouse, 1:5000; Santa Cruz, Calif.), p-APP (rabbit, 1:1000; Cell signaling Technology), BACE-1 (rabbit, 1:1000; Abcam, Cambridge, Mass.), ADAM-10 (rabbit, 1:2000; EMD chemicals), insulin-degrading enzyme (IDE) (rabbit, 1:1000, Abcam), neprilysin (rabbit, 1:1000 Millipore, Temecula, Calif.), Akt (rabbit, 1:1000; Cell Signaling Technology), p-Akt (rabbit, 1:1000; Cell signaling), glycogen synthase kinase 3α/β(GSK-3α/β)[Ser21/9] (rabbit, 1:1000; Cell signaling Technology), pGSK-3α/βSer21/9] (rabbit, 1:1000; Cell signaling Technology), Cdk5[Y15] (rabbit, 1:1000; Abcam), JNK (Thr183/Tyr185) (rabbit, 1:1000, Cell signaling Technology), the C-terminal anti-APP antibody CT15 for full-length APP and CTFβ and CTFα (rabbit, 1:2000, and three mouse monoclonal antibodies against phosphorylated tau: AT8 (recognizes phosphorylated tau at Ser-202 and Thr-205, 1:1000, Pierce, Rockford, Ill.), AT180 (recognizes phosphorylated tau at Thr-231 and Ser-235, 1:1000, Pierce) and PHF-1 (recognizes -phosphorylated tau at […] and Ser 404, 1:2000, and one mouse monoclonal against dephosphorylaed tau: Tau-1 (recognizes the tau when serines 195, 198, 199, and 202 are dephosphorylated, 1:2000,). Mouse monoclonal Tau-5 used to recognize total tau (mouse 1:2000). Blots were washed in and incubated with corresponding horseradish peroxidase-conjugated secondary antibody. […]

Aβ1-42 fibril formation = Aβ1-42 fibril formation (Homo sapiens, UniProt P05067); conditions: BBR 20 μM, in vitro; cited from earlier work
[4] = Regular oral BBR treatment of TgCRND8 mice: body weight and side effects; conditions: BBR 25 or 100 mg/kg/d orally for 4 months

Aβ1-42 fibril formation, sequence (P05067 672-713 limits assumed): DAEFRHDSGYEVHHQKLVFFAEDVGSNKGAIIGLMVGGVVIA

COc1ccc2cc3[n+](cc2c1OC)CCc1cc2c(cc1-3)OCO2 [BBR, 5,6-dihydro-9,10-dimethoxybenzo[g]-1,3-benzodioxolo[5,6-a]quinolizinium]
concentration at 3 hr ([1]; 25 mg/kg/d, low dose of BBR): 880 ± 270 nM
concentration at 3 hr ([1]; 100 mg/kg/d, high dose of BBR): 1670 ± 730 nM
passage through the blood-brain barrier ([1]; mouse, in vivo): readily passes through the blood-brain barrier
probe trial: time spent in the target quadrant (TgCRND8 mice [2]; 25 and 100 mg/kg/d vs vehicle-treated TgCRND8): highest duration; also recorded: prevent decrease in the time spent in the target quadrant
probe trial: spatial bias (TgCRND8 mice [2]; BBR 25 mg/Kg, all probe trials): significantly increases their spatial bias
hidden platform path distance (swim path) (TgCRND8 mice [2]; low and high doses of BBR (25 and 100 mg/kg/d) vs vehicle-treated TgCRND8): significantly reduced swim path; also recorded: reduced the path distance; also recorded: show a reduction in swimming distance
ThioS-labeled blood vessels (CAA), cortical area covered (TgCRND8 mice [3]; 25 mg/Kg/d (vehicle 1.44±0.17%)): 0.70% ±0.11
reduction in ThioS-positive fibrillar Aβ (TgCRND8 mice [3]; 25 mg/kg/d): 40%
ThioS-labeled blood vessels (CAA), cortical area covered (TgCRND8 mice [3]; 100 mg/Kg/d (vehicle 1.44±0.17%)): 0.89%±0.02
reduction in ThioS-positive fibrillar Aβ (TgCRND8 mice [3]; 100 mg/kg/d): 51%
reduction in the level of CTFs (N2a-SwedAPP cells; 5 μM BBR, 12 hours): 24%
decrease of p-APP (Thr668) level (N2a-SwedAPP cells; 10 μM BBR, 12 hours): 50%
level of tau bound to PHF-1 decreased to % compared to control (N2a-SwedAPP cells; 10 μM BBR, 12 hours): 30%
amount of phosphorylated GSK3, time course (N2a-SwedAPP cells; 20 μM BBR, 0-180 min, remains higher than control beyond 3 h): increases during the first 30 min
decrease of p-APP (Thr668) level (N2a-SwedAPP cells; 20 μM BBR, 12 hours): 75%
level of tau bound to PHF-1 decreased to % compared to control (N2a-SwedAPP cells; 20 μM BBR, 12 hours): 50%
reduction of CTFs level (of basal level), maximal (N2a-SwedAPP cells; 20 μM BBR, 12 hours): 55%
phosphorylation of Akt at Ser 473 and GSK3 at Ser 21 and Ser9, concentration-dependent (N2a-SwedAPP cells; BBR 10 and 20 μM, 3 hours): significant increases
cellular total Akt and GSK3β levels (N2a-SwedAPP cells; BBR treatment): does not significantly affect
inhibition of Aβ1-42 fibril formation (Aβ1-42 fibril formation): 36.3%
animal body weight [4]: does not significantly influence animal body weight
